Results as given in article PMC4938538, “Inhibition of Pig Phosphoenolpyruvate Carboxykinase Isoenzymes by 3-Mercaptopicolinic Acid and Novel Inhibitors” (PLoS ONE, 2016).
Residue numbers refer to the chain shown, from its start.

Columns and labels:
[1] = target: T1, PEPCK-C 139Leu (Sus scrofa, UniProt A0A4X1UM84, M139L); assay: Near-UV circular dichroism spectra; format: binding, pig; details: 50 μM compound, 20 μM PEPCK-C (compound 1 also 150 μM, data not shown)
T1 construct: made in house; host or cells: Escherichia coli BL21 (DE3)
T1 sequence (A0A4X1UM84 1-622 M139L): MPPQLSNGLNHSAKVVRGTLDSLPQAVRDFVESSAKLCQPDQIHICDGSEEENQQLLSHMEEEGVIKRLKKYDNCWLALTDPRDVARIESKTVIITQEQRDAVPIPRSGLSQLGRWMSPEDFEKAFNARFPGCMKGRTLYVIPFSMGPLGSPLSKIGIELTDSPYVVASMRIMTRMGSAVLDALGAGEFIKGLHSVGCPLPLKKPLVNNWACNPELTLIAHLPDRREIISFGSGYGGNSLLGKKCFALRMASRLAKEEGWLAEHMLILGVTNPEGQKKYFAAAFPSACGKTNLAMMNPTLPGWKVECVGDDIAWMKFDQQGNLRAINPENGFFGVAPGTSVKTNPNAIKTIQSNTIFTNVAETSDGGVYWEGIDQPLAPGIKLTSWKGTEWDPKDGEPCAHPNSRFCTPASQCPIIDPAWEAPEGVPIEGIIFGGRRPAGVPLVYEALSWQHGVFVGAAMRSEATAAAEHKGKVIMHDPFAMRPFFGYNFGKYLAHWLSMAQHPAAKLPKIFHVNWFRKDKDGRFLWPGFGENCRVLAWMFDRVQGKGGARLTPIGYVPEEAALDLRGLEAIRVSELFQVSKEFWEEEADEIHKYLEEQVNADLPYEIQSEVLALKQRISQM
Method: (§1) PEPCK-C was diluted to 20 μM in a 20 mM HEPES pH 7.4 buffer, containing 1 mM TCEP. 50 μM 3-MP, compound 1 or compound 2 were added to the PEPCK-C solution. Readings were performed at 25°C in a 0.1 cm cuvette from 320 to 250 nm in a Chirascan CD-spectrophotometer (Applied Photophysics, UK). CD spectra were calculated after subtracting the blank which contained all the components except PEPCK-C.

[2] = target: T2, PEPCK-C 139M (Sus scrofa, UniProt A0A4X1UM84); assay: Isothermal titration calorimetry (ITC); format: binding, pig; details: 139Met; for Kd / ΔH: 25°C
T2 construct: His-tag (cleaved yes); made in house; host or cells: Escherichia coli BL21 (DE3)
T2 sequence (A0A4X1UM84 1-622): T1 sequence (A0A4X1UM84 1-622 M139L) with L139M
Method: (§2) The reference cell was filled with distilled water. […] 2 mM GTP was also added to the enzyme solution in the corresponding experiments. […] In all the assays, a total of 19 injections of 2 μL were added sequentially to the sample cell with a 150 s spacing to ensure that the thermal power signal returned to the baseline prior to the next injection. The binding isotherms (normalized heat effect as a function of the molar ratio) were analyzed with Origin 7 (OriginLab) using a single class of binding sites model. Calorimetric assays were perform in duplicates at least.

[3] = target: T3, PEPCK-C 139L (Sus scrofa, UniProt A0A4X1UM84, M139L); assay: Isothermal titration calorimetry (ITC); format: binding, pig; details: 139Leu; for Kd / ΔH: 25°C
T3 construct: His-tag (cleaved yes); made in house; host or cells: Escherichia coli BL21 (DE3)
T3 sequence (A0A4X1UM84 1-622 M139L): T1 sequence (A0A4X1UM84 1-622 M139L)
Method: as §2

[4] = target: T4, PEPCK-C 139Met (Sus scrofa, UniProt A0A4X1UM84); assay: Near-UV circular dichroism spectra; format: binding, pig; design: His-tag (cleaved yes); made in house; host or cells: Escherichia coli BL21 (DE3); details: 50 μM compound, 20 μM PEPCK-C (compound 1 also 150 μM, data not shown)
T4 sequence (A0A4X1UM84 1-622): T1 sequence (A0A4X1UM84 1-622 M139L) with L139M
Method: as §1

[5] = target: T5, wild type PEPCK-C (Sus scrofa, UniProt A0A4X1UM84); assay: IC50 determination, PEPCK-C activity in the direction of OAA synthesis (coupled spectrophotometric assay with malate dehydrogenase); format: biochemical, pig; details: saturating substrate concentration
T5 construct: made in house; host or cells: Escherichia coli BL21 (DE3)
T5 sequence (A0A4X1UM84 1-622): T1 sequence (A0A4X1UM84 1-622 M139L) with L139M
Method: PEPCK-C activity was measured in an UNICAM 500 spectrometer (UNICAM Analytical Systems, UK) with coupled spectrophotometric assays using pyruvate kinase and lactate dehydrogenase as auxiliary enzymes in PEP synthesis reaction and malate dehydrogenase in the reverse reaction.
Variable inhibitor concentrations of 0–200 μM were also used. Assays were initiated by PEPCK-C addition. Rates were calculated by measuring the decreasing slope of absorbance at 340 nm after subtracting the rate of spontaneous NADH oxidation.
3-MP inhibition assays were fitted in double reciprocal plots. To describe the mixed non-competitive inhibition, the double reciprocal equation can be written as: 1/v = Km/Vmax (1+[I]/Ki) 1/[S]+1/Vmax (1+[I]/αKi) (2)

[6] = Solubility / precipitation in the enzymatic assay; format: physicochemical
Method: Assays to calculate IC50 values were performed in the direction of OAA synthesis in 1 mL of a 100 mM HEPES buffer pH 7.4, containing 10 mM DTT, 0.2 mM MnCl2, 2 mM MgCl2, 2 mM GDP, 0.2 mM NADH, 2 mM PEP, 100 mM KHCO3 and 4 units of malate dehydrogenase. Variable inhibitor concentrations of 0–200 μM were also used. Assays were initiated by PEPCK-C addition. Rates were calculated by measuring the decreasing slope of absorbance at 340 nm after subtracting the rate of spontaneous NADH oxidation.

[7] = stated for both isoenzymes, with and without GTP

Kd ([2]; +GTP (2 mM)) [µM] | ΔH ([2]; +GTP (2 mM)) [kcal/mol] | Kd ([2]; -GTP) [µM] | ΔH ([2]; -GTP) [kcal/mol] | Kd ([3]; +GTP (2 mM)) [µM] | ΔH ([3]; +GTP (2 mM)) [kcal/mol] | Kd ([3]; -GTP) [µM] | ΔH ([3]; -GTP) [kcal/mol] | IC50 [5] [µM] | Solubility (in words) [6] | n (stoichiometry, number of binding sites), all experiments [2, 7] | n (stoichiometry, number of binding sites), all experiments [3, 7] | Compound | Change of near-UV CD spectrum of the enzyme [1] | Change of near-UV CD spectrum of the enzyme [4]
19 | -31.8 | 7.2 | -20.4 | 39 | -58.2 | 12 | -32.6 | 65 ± 6 |  |  |  | O=C(O)c1ncccc1S [3-MP, 3-mercaptopicolinic acid] | modify the CD spectra of both isoenzymes | modify the CD spectra of both isoenzymes
 |  |  |  |  |  |  |  | 134 ± 4 | poor solubility |  |  | CC(=NNC(=S)NC1CCCCC1)c1sc(-c2cccs2)nc1C [compound 1, N1-cyclohexyl-2-{1-[4-methyl-2-(2-thienyl)-1,3-thiazol-5-yl]ethylidene}hydrazine-1-carbothiamide] | no clear differences in the enzyme CD spectra | no clear differences in the enzyme CD spectra
19 | -26.6 | 4.4 | -20.5 | 14 | -13.9 | 9.8 | -16.7 | 30 ± 2 | poor solubility | ~1 | ~1 | Cn1nc(-c2ccc(C=NNC(=O)c3ccc(Cl)cc3Cl)s2)cc1C(F)(F)F [compound 2, N'1-({5-[1-methyl-5-(trifluoromethyl)-1H-pyrazol-3-yl]-2-thienyl}methylidene)-2,4-dichlorobenzene-1-carbohydrazide] | more markedly compound 2 modify the CD spectra of both isoenzymes | more markedly compound 2 modify the CD spectra of both isoenzymes
